The results in this text go back to patent US12589111B2, “Pt(IV) chemotherapeutic prodrug and controlled release thereof for treatment of tumors” (PEKING UNIVERSITY, priority 2020, dated 2026).

The first data set in a line: Determination of release efficiency by UPLC-MS after X-ray irradiation. The note with it: 10 μM in pure water, deoxygenated, 60 Gy X-ray (4 Gy/min, 15 min); released divalent platinum drug by UPLC-MS. It counts as physicochemical. The protocol: 2.7 Determination of Release Efficiency by UPLC-MS
Corresponding tetravalent platinum complexes (compounds 1-66) were dissolved in DMSO to obtain tetravalent platinum stock solutions (10 mM), and then diluted to 10 μM with pure water. After deoxygenation, the solution was subjected to 60 Gy X-ray irradiation (4 Gy/min, 15 min). The reaction crude product was analyzed by UPLC-MS, and the released product was determined to be the corresponding divalent platinum drug by UPLC-MS. The concentration of the divalent platinum drug was determined by the external standard curve of the platinum drug, and the release efficiency was calculated.
As for `CC(=O)[O][Pt]([NH2])([NH2])([Cl])([Cl])[O]C(C)=O` [Compound 1], the Release efficiency turned out to be 83.2%.

Take `CC(=O)[O][Pt]([NH2])([NH2])([Cl])([Cl])[O]C(=O)CCCc1ccc(I)cc1` [Compound 2]: the Release efficiency came out at 85.7%.

Regarding `CC(=O)[O][Pt]([NH2])([NH2])([Cl])([Cl])[O]C(=O)CCCCCN1C(=O)C=CC1=O` [Compound 3], the Release efficiency was 80.3%.

Turning to `CCCCCCCCCCCCCCCCNC(=O)[O][Pt]([NH2])([NH2])([Cl])([Cl])[O]C(C)=O` [Compound 4], the Release efficiency is recorded as 79.5%.

`CCCCCCCCCCCCCCCCCCNC(=O)[O][Pt]([NH2])([NH2])([Cl])([Cl])[O]C(C)=O` [Compound 5]: the Release efficiency was found to be 73.9%.

For the molecule `CC(=O)[O][Pt]([NH2])([NH2])([Cl])([Cl])[O]C(=O)CCC(=O)O` [Compound 8], the Release efficiency is recorded as 75.5%.

As to `[NH2][Pt]([NH2])([Cl])([Cl])([O]C(=O)CCC(=O)O)[O]C(=O)CCC(=O)O` [Compound 9], the Release efficiency was found to be 75.6%.

For `[NH2][Pt]([NH2])([Cl])([Cl])([O]C(=O)CCCc1ccc(I)cc1)[O]C(=O)CCC(=O)O` [Compound 10], the Release efficiency came to 76.7%.

Turning to `[NH2][Pt]([NH2])([Cl])([Cl])([O]C(=O)CCCCCN1C(=O)C=CC1=O)[O]C(=O)CCC(=O)O` [Compound 11], the Release efficiency stood at 73.9%.

Regarding `CCCCCCCCCCCCCCCCNC(=O)[O][Pt]([NH2])([NH2])([Cl])([Cl])[O]C(=O)CCC(=O)O` [Compound 12], the Release efficiency is reported as 77.4%.

Take `CCCCCCCCCCCCCCCCCCNC(=O)[O][Pt]([NH2])([NH2])([Cl])([Cl])[O]C(=O)CCC(=O)O` [Compound 13]: the Release efficiency is 82.7%.

In the case of `CC(=O)[O][Pt]([NH2])([NH2])([Cl])([Cl])[O]C(=O)CN(C)C` [Compound 16], the Release efficiency was 71.9%.

In the case of `CN(C)CC(=O)[O][Pt]([NH2])([NH2])([Cl])([Cl])[O]C(=O)CCCc1ccc(I)cc1` [Compound 17], the Release efficiency was 79.6%.

Consider `CN(C)CC(=O)[O][Pt]([NH2])([NH2])([Cl])([Cl])[O]C(=O)CCCCCN1C(=O)C=CC1=O` [Compound 18], for which the Release efficiency was 73.5%.

Regarding `CCCCCCCCCCCCCCCCNC(=O)[O][Pt]([NH2])([NH2])([Cl])([Cl])[O]C(=O)CN(C)C` [Compound 19], the Release efficiency was determined as 78.5%.

In the case of `CCCCCCCCCCCCCCCCCCNC(=O)[O][Pt]([NH2])([NH2])([Cl])([Cl])[O]C(=O)CN(C)C` [Compound 20], the Release efficiency is recorded as 83.7%.

Regarding `CCCCCCCCCCCCCCCCNC(=O)[O][Pt]1([NH2])([NH2])([O]C(C)=O)[O]C(=O)C2(CCC2)C(=O)[O]1` [Compound 26], the Release efficiency turned out to be 69.4%.

With `N.N.O=C(O)CCC(=O)[O][Pt]1([O]C(=O)CCC(=O)O)[O]C(=O)C2(CCC2)C(=O)[O]1` [Compound 31], the Release efficiency came out at 65.9%.

For `N.N.O=C(O)CCC(=O)[O][Pt]1([O]C(=O)CCCc2ccc(I)cc2)[O]C(=O)C2(CCC2)C(=O)[O]1` [Compound 32], the Release efficiency came to 64.6%.

Turning to `N.N.O=C(O)CCC(=O)[O][Pt]1([O]C(=O)CCCCCN2C(=O)C=CC2=O)[O]C(=O)C2(CCC2)C(=O)[O]1` [Compound 33], the Release efficiency is listed as 67.7%.

With `CCCCCCCCCCCCCCCCCCNC(=O)[O][Pt]1([O]C(=O)CCC(=O)O)[O]C(=O)C2(CCC2)C(=O)[O]1.N.N` [Compound 35], the Release efficiency was 73.5%.

Turning to `CN(C)CC(=O)[O][Pt]1([O]C(=O)CCCc2ccc(I)cc2)[O]C(=O)C2(CCC2)C(=O)[O]1.N.N` [Compound 39], the Release efficiency came out at 71.0%.

As for `CN(C)CC(=O)[O][Pt]1([O]C(=O)CCCCCN2C(=O)C=CC2=O)[O]C(=O)C2(CCC2)C(=O)[O]1.N.N` [Compound 40], the Release efficiency came to 68.9%.

Regarding `CCCCCCCCCCCCCCCCCCNC(=O)[O][Pt]1([O]C(=O)CN(C)C)[O]C(=O)C2(CCC2)C(=O)[O]1.N.N` [Compound 42], the Release efficiency is reported as 66.3%.

As for `N[C@@H]1CCCC[C@H]1N.O=C(O)CCC(=O)[O][Pt]1([O]C(=O)CCC(=O)O)[O]C(=O)C(=O)[O]1` [Compound 53], the Release efficiency came out at 76.7%.

Take `N[C@@H]1CCCC[C@H]1N.O=C(O)CCC(=O)[O][Pt]1([O]C(=O)CCCc2ccc(I)cc2)[O]C(=O)C(=O)[O]1` [Compound 54]: the Release efficiency amounted to 75.3%.

`N[C@@H]1CCCC[C@H]1N.O=C(O)CCC(=O)[O][Pt]1([O]C(=O)CCCCCN2C(=O)C=CC2=O)[O]C(=O)C(=O)[O]1` [Compound 55]: the Release efficiency turned out to be 81.9%.

Turning to `CCCCCCCCCCCCCCCCNC(=O)[O][Pt]1([O]C(=O)CCC(=O)O)[O]C(=O)C(=O)[O]1.N[C@@H]1CCCC[C@H]1N` [Compound 56], the Release efficiency was 80.2%.

`CCCCCCCCCCCCCCCCCCNC(=O)[O][Pt]1([O]C(=O)CCC(=O)O)[O]C(=O)C(=O)[O]1.N[C@@H]1CCCC[C@H]1N` [Compound 57]: the Release efficiency is recorded as 76.3%.

Consider `CCCCCCCCCCCCCCCC(=O)[O][Pt]1([O]C(=O)CCC(=O)O)[O]C(=O)C(=O)[O]1.N[C@@H]1CCCC[C@H]1N` [Compound 58], for which the Release efficiency is given as 81.3%.

Turning to `CCCCCCCCCCCCCCCCCC(=O)[O][Pt]1([O]C(=O)CCC(=O)O)[O]C(=O)C(=O)[O]1.N[C@@H]1CCCC[C@H]1N` [Compound 59], the Release efficiency came out at 82.0%.

Take `CC(=O)[O][Pt]1([O]C(=O)CN(C)C)[O]C(=O)C(=O)[O]1.N[C@@H]1CCCC[C@H]1N` [Compound 60]: the Release efficiency is recorded as 81.3%.

In the case of `CN(C)CC(=O)[O][Pt]1([O]C(=O)CCCc2ccc(I)cc2)[O]C(=O)C(=O)[O]1.N[C@@H]1CCCC[C@H]1N` [Compound 61], the Release efficiency was found to be 73.7%.

Consider `CN(C)CC(=O)[O][Pt]1([O]C(=O)CCCCCN2C(=O)C=CC2=O)[O]C(=O)C(=O)[O]1.N[C@@H]1CCCC[C@H]1N` [Compound 62], for which the Release efficiency turned out to be 74.5%.

For `CCCCCCCCCCCCCCCCNC(=O)[O][Pt]1([O]C(=O)CN(C)C)[O]C(=O)C(=O)[O]1.N[C@@H]1CCCC[C@H]1N` [Compound 63], the Release efficiency was determined as 75.7%.

For the molecule `CCCCCCCCCCCCCCCCCCNC(=O)[O][Pt]1([O]C(=O)CN(C)C)[O]C(=O)C(=O)[O]1.N[C@@H]1CCCC[C@H]1N` [Compound 64], the Release efficiency is 82.2%.

As to `CCCCCCCCCCCCCCCC(=O)[O][Pt]1([O]C(=O)CN(C)C)[O]C(=O)C(=O)[O]1.N[C@@H]1CCCC[C@H]1N` [Compound 65], the Release efficiency amounted to 74.6%.

For `CCCCCCCCCCCCCCCCCC(=O)[O][Pt]1([O]C(=O)CN(C)C)[O]C(=O)C(=O)[O]1.N[C@@H]1CCCC[C@H]1N` [Compound 66], the Release efficiency amounted to 77.5%.

The next data set is described as follows: Release of the corresponding platinum drug of Pt(IV)-(Suc)2 after γ-ray irradiation. It counts as physicochemical. The note with it: deoxygenated, 60Co γ-rays; UPLC-MS, 195Pt NMR. The protocol: 2.6 Detection of the Release of the Corresponding Platinum Drug of Pt(IV)-(Suc)2
Pt(IV)-(Suc)2 was dissolved in 1 mL of deuterium water ([…]), and the mixture was adjusted to a pH of 7 with NaOH. After deoxygenation, the solution was exposed to 40 kGy γ-ray irradiation (^60Co source, 200 Gy/min, 200 min).
Determination of product by UPLC-MS (FIG. 3, b c)
After deoxygenation, the solution was exposed to 1 kGy γ-ray irradiation (^60Co source, 100 Gy/min, 10 min).
Consider `[NH2][Pt]1([NH2])([O]C(=O)CCC(=O)O)([O]C(=O)CCC(=O)O)[O]C(=O)C2(CCC2)C(=O)[O]1` [carboPt(IV)-(Suc)2], for which the “product released by γ-ray irradiation” value is recorded as “release the corresponding Pt(II) drugs”.

Consider `N.N.O=C(O)CCC(=O)[O][Pt]([Cl])([Cl])[O]C(=O)CCC(=O)O` [cisPt(IV)-(Suc)2], for which the “product released by γ-ray irradiation” value is listed as “release the corresponding Pt(II) drugs”.

Consider `NC1CCCCC1N.O=C(O)CCC(=O)[O][Pt]1([O]C(=O)CCC(=O)O)[O]C(=O)C(=O)[O]1` [oxaliPt(IV)-(Suc)2], for which the “product released by γ-ray irradiation” value is listed as “released product was oxaliplatin”.

The nature of the next data set: Ligand release of Pt(IV) complex 1 in different solutions after X-ray irradiation. Particulars: 100 μM in complete fetal bovine serum (FBS). It counts as physicochemical. As to the method: 2.5 Detection of Ligand Release of Pt(IV) Complex 1 in Different Solutions
A 10 mM stock solution of Pt(IV) complex 1 was prepared, and diluted to 100 μM in H2O. PBS, 5 mM Tyr, Trp, DMEM and CM (complete medium), FBS solution. After X-ray irradiation, 200 μL of ACN was added to each solution. The mixture was centrifuged, and the supernatant was then collected. The operation was repeated 2 more times, and the final concentration was ⅛ of the original concentration. Ligand release was detected by UPLC-MS and quantified by a standard curve of coumarin.
In the case of `CC(=O)[O][Pt]([Cl])([Cl])[O]C(C)=O.N.N` [Pt(IV) complex 1], the “reaction yield of ligand release” value is given as “not much different from that in water”.

Staying with this data set, now noted: 100 μM; PBS, 5 mM Tyr, 5 mM Trp, DMEM, CM; X-ray, UPLC-MS.
For `CC(=O)[O][Pt]([Cl])([Cl])[O]C(C)=O.N.N` [Pt(IV) complex 1], the “release of axial ligands” value is “achieved in all of the above solutions”.
